Laboratory results published in patent US12144851B2, “Vaccinal strategy” (INSERM (INSTITUT NATIONAL DE LA SANTÉ ET DE LA RECHERCHE …, priority 2018, dated 2024).
Like-named read-outs stand apart in the source and are kept apart here. Where a SMILES comes first, the peptide text is derived from it. Where no end group is shown, it is not given here.

What was measured:
[1] = system: MELOE-1, HLA A*0201 restricted CD8 T cell clone; settings: for cross-presentation compared with full length MELOE-1 / native antigen (in words): full length MELOE-1 as reference; for Fold change = EC50 (M) of MELOE-111-46/EC50 (M) SLP: SLP MELOE-113-27 xxxx MELOE-136-44, TNF-a response of CD8 T cell clone to SLP-loaded DC, range over independent experiments
[2] = system: MELOE-1, HLA DRb1*11 restricted CD4 T cell clone
[3] = system: CD8+ splenocytes restimulated with MELOE-136-44; assay: Immunization of transgenic mice with SLP, CD8 ELISpot-IFN-g; type: in vivo, HLA-DRB1*0101/HLA-A*0201 transgenic mice; settings: INFg-ELIspot; positive if spots more than twice background and above ten; s.c. 100 μg prime, 50 μg boosts, IFA + polyI:C
Procedure: CD8+ splenocytes from immunized mice were tested by INFg-ELIspot following restimulation with the short epitope MELOE-136-44. Mice were considered positive if the number of spots after restimulation were more than twice the background level and above ten spots.
HLA-DRB1*0101/HLA-A*0201 transgenic mice (A2/DR1 mice) were used to evaluate immunogenicity of peptides. Group of 5 female A2/DR1 mice (6 to 10 weeks) were immunized subcutaneously with 100 μg of each peptides emulsified in incomplete Freund adjuvant (v/v) plus 50 μg of polyI:C. At day 14 and day 28 boost vaccinations were performed with 50 μg of each peptide along with the same adjuvants. All experiments were carried out according to the good laboratory practices defined by the animal experimentation Rules in France.
Specific immune responses were evaluated 10 days after the last boost by ELISpot-IFN-g (Diaclone, France). Briefly, freshly isolated splenocytes or CD8 positive T cells from spleen (CD8+ T Cell Isolation Kit, Miltenyi Biotec) were incubated (2.105 cells per well) during 15-20 hours in ELISpot plate in the presence of the class I MELOE-1 epitope (5 μg/ml final) or medium (X-vivo, as negative control) or PMA-ionomycin (positive control). Ex vivo CD4 T cell responses were evaluated on the CD8 negative fraction as above with the HLA-DRB1*0101-restricted epitope MELOE-113-27. […] Spot-forming cells were counted using the «C.T.L. Immunospot» system (Cellular Technology Ltd). Results were considered positive when the ELISPOT counts were >10 spots and above 2× the background (medium). (Dosset et al Clin Cancer Res, 2012)
Finally, we explored the immunogenicity of our SLP in vivo in HLA-DRB1*0101/HLA-A*0201 transgenic mice. Mice were immunized subcutaneously with 100 μg of SLP in IFA and poly I:C and boosted at D14 and D28 with 50 μg of SLP with the same adjuvants (see M&M). We focused on cross-presentation and thus assessed CD8 T cell responses by ELISpot-IFN-g after re-stimulation with the short MELOE-1136-44 epitope (SEQ ID NO:31) or with medium alone. A mouse was considered responder when ELIspots were above 10 and at least twice about background. A typical experiment is presented in FIG. 7 comparing immunization with SLP containing MELOE-113-27 (SEQ ID NO:21) and MELOE-136-44 (SEQ ID NO:31) with linker GGGG (SEQ ID NO:160) or LLSVGG (SEQ ID NO:9). Immunization with SLP containing GGGG (SEQ ID NO:160) generated moderate CD8 responses in 3 out of five mice while immunization with SLP with LLSVGG (SEQ ID NO:9) was efficient in all 5 mice with two mice showing robust CD8 responses. Previous experiments performed with the shorter linkers LLSV (SEQ ID NO:4) or LLSVG (SEQ ID NO:8) also supported the hypothesis that our synthetic linkers favored cross-presentation when compared to either the linker GGGG or the native sequence (Table 4). In contrast, CD4 responses evaluated ex vivo towards the HLA-DRB1*0101 epitope were very low (FIG. 7C).

[4] = system: CD4 MELOE-113-27-specific T cell clone (HLA DRB1*01 restricted)
From the text: MELOE-111-46 native long peptide and SLP with the linker GGGG (SEQ ID NO:160) were used as controls.

[5] = read-out: EC50, cross-presentation of the HLA-A*0201-restricted MELOE-1 epitope, SLP series MELOE-1 11-23 xxxx MELOE-1 36-44, three independent experiments, FIG. 3

In the case of `CC(C)C[C@H](NC(=O)[C@@H](NC(=O)CNC(=O)CNC(=O)CNC(=O)CNC(=O)[C@H](Cc1c[nH]c2ccccc12)NC(=O)[C@@H]1CCCN1C(=O)[C@@H]1CCCN1C(=O)[C@H](CS)NC(=O)[C@H](C)NC(=O)[C@H](C)NC(=O)CNC(=O)[C@H](CCC(=O)O)NC(=O)[C@H](CO)NC(=O)[C@@H]1CCCN1C(=O)[C@H](CC(C)C)NC(=O)[C@H](Cc1ccccc1)NC(=O)[C@H](CCC(N)=O)NC(=O)[C@H](CCC(=O)O)NC(=O)[C@H](CCCNC(=N)N)NC(=O)[C@H](CO)NC(=O)[C@@H](NC(=O)[C@H](C)NC(=O)[C@H](C)N)[C@@H](C)O)[C@@H](C)O)C(=O)N[C@@H](CC(N)=O)C(=O)N[C@@H](CC(=O)O)C(=O)N[C@@H](CCC(=O)O)C(=O)N[C@@H](CS)C(=O)N[C@@H](Cc1c[nH]c2ccccc12)C(=O)N1CCC[C@H]1C(=O)N[C@@H](C)C(=O)O` [GGGG (MELOE-111-23 xxxx MELOE-136-44), reference compound] (H-AATSREQFLPSEGAACPPWGGGGTLNDECWPA-OH; N-terminus and C-terminus assumed), the EC50 [1] is reported as 1200 nM and the “cross-presentation compared with full length MELOE-1 / native antigen (in words)” value [1] is reported as “poorer cross-presentation”.
For “TSREQFLPSEGAACPPWGLSVGGTLNDECWPASL (Synthetic SLP) [SEQ ID NO: 81]”, the “Fold change = EC50 (M) of MELOE-111-46/EC50 (M) SLP” value (shortened to “Fold change = EC50 (M)”) [1] was 1.
For `CC[C@H](C)[C@H](NC(=O)[C@H](CCCNC(=N)N)NC(=O)[C@H](CCC(=O)O)NC(=O)[C@H](CO)NC(=O)[C@@H]1CCCN1C(=O)[C@H](Cc1c[nH]cn1)NC(=O)[C@H](Cc1c[nH]c2ccccc12)NC(=O)[C@@H]1CCCN1C(=O)[C@@H]1CCCN1C(=O)[C@H](CS)NC(=O)[C@H](C)NC(=O)[C@H](C)N)C(=O)N[C@@H](CO)C(=O)N[C@@H](CO)C(=O)N[C@H](C(=O)N[C@@H](CC(C)C)C(=O)N[C@@H](CC(C)C)C(=O)N[C@H](C(=O)NCC(=O)N[C@@H](CO)C(=O)N[C@H](C(=O)N[C@@H](CC(C)C)C(=O)N[C@@H](CC(N)=O)C(=O)N[C@@H](CC(=O)O)C(=O)N[C@@H](CCC(=O)O)C(=O)N[C@@H](CS)C(=O)N[C@@H](Cc1c[nH]c2ccccc12)C(=O)N1CCC[C@H]1C(=O)N[C@@H](C)C(=O)N[C@@H](CO)C(=O)N[C@@H](CC(C)C)C(=O)O)[C@@H](C)O)C(C)C)[C@@H](C)O` [LVGS (MELOE-124-37 xxxx MELOE-136-44)] (H-AACPPWHPSERISSTLLVGSTLNDECWPASL-OH), the EC50 [2] was 14 nM and the EC50 [1] was 110 nM.
For “LLSV [LLSV (MELOE-111-23 xxxx MELOE-136-44)]”, the “cross-presentation compared with full length MELOE-1 / native antigen (in words)” value [1] was “hundred fold better” and the EC50 [1, 5] was 2.8 nM.
With “TSREQFLPSEGAACPPWGLSVVVTLNDECWPASL (Synthetic SLP) [SEQ ID NO: 85]” the “Fold change = EC50 (M)” value [1] was 1.
For “TSREQFLPSEGAACPPWPLSVIITLNDECWPASL (Synthetic SLP) [SEQ ID NO: 79]”, the “Fold change = EC50 (M)” value [1] was 2.3-10.
In the case of “ASLG [ASLG (MELOE-111-23 xxxx MELOE-136-44)]”, the “cross-presentation compared with full length MELOE-1 / native antigen (in words)” value [1] is reported as “ten fold better presentation” and the EC50 [1, 5] is reported as 12 nM.
With “PIVLG [PIVLG (MELOE-111-23 xxxx MELOE-136-44)]” the “cross-presentation compared with full length MELOE-1 / native antigen (in words)” value [1] was “hundred fold better” and the EC50 [1, 5] was 3.2 nM.
With “VLSVG [VLSVG (MELOE-111-23 xxxx MELOE-136-44)]” the “cross-presentation compared with full length MELOE-1 / native antigen (in words)” value [1] was “hundred fold better” and the EC50 [1, 5] was 2.1 nM.
For “TSREQFLPSEGAACPPWSLSVGGTLNDECWPASL (Synthetic SLP) [SEQ ID NO: 75]”, the “Fold change = EC50 (M)” value [1] was 1-8.
`CC[C@H](C)[C@H](NC(=O)[C@H](CCCNC(=N)N)NC(=O)[C@H](CCC(=O)O)NC(=O)[C@H](CO)NC(=O)[C@@H]1CCCN1C(=O)[C@H](Cc1c[nH]cn1)NC(=O)[C@H](Cc1c[nH]c2ccccc12)NC(=O)[C@@H]1CCCN1C(=O)[C@@H]1CCCN1C(=O)[C@H](CS)NC(=O)[C@H](C)NC(=O)[C@H](C)N)C(=O)N[C@@H](CO)C(=O)N[C@@H](CO)C(=O)N[C@H](C(=O)N[C@@H](CC(C)C)C(=O)NCC(=O)NCC(=O)NCC(=O)NCC(=O)N[C@H](C(=O)N[C@@H](CC(C)C)C(=O)N[C@@H](CC(N)=O)C(=O)N[C@@H](CC(=O)O)C(=O)N[C@@H](CCC(=O)O)C(=O)N[C@@H](CS)C(=O)N[C@@H](Cc1c[nH]c2ccccc12)C(=O)N1CCC[C@H]1C(=O)N[C@@H](C)C(=O)N[C@@H](CO)C(=O)N[C@@H](CC(C)C)C(=O)O)[C@@H](C)O)[C@@H](C)O` [GGGG (MELOE-124-37 xxxx MELOE-136-44), reference compound] (H-AACPPWHPSERISSTLGGGGTLNDECWPASL-OH; N-terminus and C-terminus assumed) was tested, and the EC50 [2] was 26 nM and the EC50 [1] was 1900 nM.
“MSCVGYPDEATSREQFLPSEGAACPPWHPSERISSTLNDECWPASL (cysteines drawn unpaired) [full length MELOE-1, reference compound]” showed an EC50 [2] of about 70 nM.
“LVGS [LVGS (MELOE-111-23 xxxx MELOE-136-44)]” was tested, and the “cross-presentation compared with full length MELOE-1 / native antigen (in words)” value [1] was “ten fold better presentation” and the EC50 [1, 5] was 34 nM.
“TSREQFLPSEGAACPPWVLSVGGTLNDECWPASL (Synthetic SLP) [SEQ ID NO: 69]” was tested, and the “Fold change = EC50 (M)” value [1] was 1.5-2.
For `CC(C)C[C@H](NC(=O)[C@H](CO)NC(=O)[C@H](C)NC(=O)[C@@H]1CCCN1C(=O)[C@H](Cc1c[nH]c2ccccc12)NC(=O)[C@H](CS)NC(=O)[C@H](CCC(=O)O)NC(=O)[C@H](CC(=O)O)NC(=O)[C@H](CC(N)=O)NC(=O)[C@H](CC(C)C)NC(=O)[C@@H](NC(=O)CNC(=O)[C@@H](NC(=O)[C@H](CO)NC(=O)[C@H](CC(C)C)NC(=O)[C@H](CC(C)C)NC(=O)[C@H](Cc1c[nH]c2ccccc12)NC(=O)[C@@H]1CCCN1C(=O)[C@@H]1CCCN1C(=O)[C@H](CS)NC(=O)[C@H](C)NC(=O)[C@H](C)NC(=O)CNC(=O)[C@H](CCC(=O)O)NC(=O)[C@H](CO)NC(=O)[C@@H]1CCCN1C(=O)[C@H](CC(C)C)NC(=O)[C@H](Cc1ccccc1)NC(=O)[C@H](CCC(N)=O)NC(=O)[C@H](CCC(=O)O)NC(=O)[C@H](CCCNC(=N)N)NC(=O)[C@H](CO)NC(=O)[C@@H](N)[C@@H](C)O)C(C)C)[C@@H](C)O)C(=O)O` [SEQ ID NO: 89] (H-TSREQFLPSEGAACPPWLLSVGTLNDECWPASL-OH; N-terminus and C-terminus assumed), the “Fold change = EC50 (M)” value [1] was 10-20, the “CD8 responses, positive mice, Exp#2” value [3] was 2/5 and the EC50 [4] was 6.8 nM.
In the case of “TSREQFLPSEGAACPPWSLSVAATLNDECWPASL (Synthetic SLP) [SEQ ID NO: 73]”, the “Fold change = EC50 (M)” value [1] is reported as 7-8.
In the case of “TSREQFLPSEGAACPPWALSVGGTLNDECWPASL (Synthetic SLP) [SEQ ID NO: 77]”, the “Fold change = EC50 (M)” value [1] is reported as 1-3.
For “GSGS [GSGS (MELOE-111-23 xxxx MELOE-136-44)]”, the “cross-presentation compared with full length MELOE-1 / native antigen (in words)” value [1] was “poorer cross-presentation” and the EC50 [1, 5] was 430 nM.
With “TSREQFLPSEGAACPPWVLSVGTLNDECWPASL (Synthetic SLP) [SEQ ID NO: 71]” the “Fold change = EC50 (M)” value [1] was 3-13 and the “cross-presentation compared with full length MELOE-1 / native antigen (in words)” value [1] was “ten fold”.
